Patent US5308843A, “Method of inhibiting mammalian topoisomerase II and malignant cell growth in mammals, with substituted (S)-3-methyl-7-oxo-2,3-dihydro-7H-pyrido[1,2,3-de][1,4 ]-benzoxazine(and-benzothiazine)-6-carboxylic acids” (Sterling Drug Inc., priority 1990, dated 1994)
“Also recorded” adds a separate entry of the source.

Tests used:
[1] = In vivo antitumor assay, pancreatic ductal adenocarcinoma No. 03 (Panc03, SC); design: species or system mice; details: mouse, in vivo; Panc03 (SC); drug SC; QD3-9; read-out: Maximum Tolerated Total Dose
Excerpt: (§1) In vivo Antitumor Assay Procedure
(§2) Mice: Inbred: C3H/He; and Hybrids: B6D2F1 (C57BL/6 females×DBA/2 males), CD2F1 (Balb/c females×DBA/2 males) and B6C3F1 (C57BL/6×C3H) were bred at Wayne State University from strains obtained from the Frederick Cancer Research Facility, Frederick, Md. or from commercial suppliers.
(§3) Tumors: Murine Tumors: P388 leukemia and the following transplantable solid tumors of mice were used for in vivo testing: B16 melanoma, pancreatic ductal adenocarcinoma No. 03, colon adenocarcinoma No. 38 and mammary ductal adenocarcinoma No. 16/C. All tumors are in the Developmental Therapeutics Program frozen tumor repository, maintained by the Biological Testing Branch, Frederick, Md. Each has a detailed description, code identification number, and list of references at the National Tumor Repository. Tumors were maintained in the mouse strain of origin and were transplanted in the appropriate F1 hybrid (or the strain of origin) for therapy trials. The mice were supplied food and water ad libitum.
(§4) Chemotherapy: For pancreatic ductal adenocarcinoma No. 03, colon adenocarcinoma No. 38, and mammary ductal adenocarcinoma No. 16, the following methods were used to help ensure a more uniform tumor burden per mouse (thus reducing the requirement for greater numbers of mice per group), bilateral tumor implants were used. The animals necessary to begin an experiment were pooled, implanted bilaterally s.c. on day zero with 30-60-mg tumor fragments using a 12-gauge trocar, and again pooled before randomization to the various treatment and control groups. Chemotherapy was started within three days after tumor implantation while the number of cells per mouse was relatively small (1×10^7 -1×10^8 cells).
(§5) End Points for Assessing Antitumor Activity: Quantitative end points used to assess antitumor activity included % Increased Life Span (% ILS), Tumor Cell Kill (Log10 kill), and Tumor Growth Inhibition (T/C). Long Term Survivors (45 or 60 day) were excluded from calculations of % ILS and Tumor Cell Kill.
(§6) Endpoints were calculated as follows: [formula] where Dt is the median day of death for treated and Dc is the median day of death for control groups.
(§7) T/C Value: Tumors were measured with a caliper once or twice weekly (as needed) until either tumors exceeded 1600 mg or cure was assured. Tumor weights were estimated from two-dimensional measurements: Tumor Weight (mg)=(a×b^2)/2, where a and b are the tumor length and width (mm), respectively. Measurements were carried out simultaneously in both the treatment and control groups. When the control group tumors reached approximately 750-1500 mg in size (median of group), the median tumor weight of each group was determined (including zeros). The T/C value in percent is an indication of antitumor effectiveness. […]. […]

[2] = target: T1, human topoisomerase II (Homo sapiens, UniProt P11388); experiment: Mammalian (human) topoisomerase II inhibition assay: topo II-DNA complex stabilisation; type: biochemical; details: concentration with activity equal to the EC50 of reference mAMSA; 20 min at 37° C.
T1 construct: Topo II was purified from late log phase suspension cultures of HeLa WIS; endogenous in cells; host or cells: HeLa WIS (late log phase suspension cultures); native enzyme purified in house
T1 sequence (P11388 whole entry): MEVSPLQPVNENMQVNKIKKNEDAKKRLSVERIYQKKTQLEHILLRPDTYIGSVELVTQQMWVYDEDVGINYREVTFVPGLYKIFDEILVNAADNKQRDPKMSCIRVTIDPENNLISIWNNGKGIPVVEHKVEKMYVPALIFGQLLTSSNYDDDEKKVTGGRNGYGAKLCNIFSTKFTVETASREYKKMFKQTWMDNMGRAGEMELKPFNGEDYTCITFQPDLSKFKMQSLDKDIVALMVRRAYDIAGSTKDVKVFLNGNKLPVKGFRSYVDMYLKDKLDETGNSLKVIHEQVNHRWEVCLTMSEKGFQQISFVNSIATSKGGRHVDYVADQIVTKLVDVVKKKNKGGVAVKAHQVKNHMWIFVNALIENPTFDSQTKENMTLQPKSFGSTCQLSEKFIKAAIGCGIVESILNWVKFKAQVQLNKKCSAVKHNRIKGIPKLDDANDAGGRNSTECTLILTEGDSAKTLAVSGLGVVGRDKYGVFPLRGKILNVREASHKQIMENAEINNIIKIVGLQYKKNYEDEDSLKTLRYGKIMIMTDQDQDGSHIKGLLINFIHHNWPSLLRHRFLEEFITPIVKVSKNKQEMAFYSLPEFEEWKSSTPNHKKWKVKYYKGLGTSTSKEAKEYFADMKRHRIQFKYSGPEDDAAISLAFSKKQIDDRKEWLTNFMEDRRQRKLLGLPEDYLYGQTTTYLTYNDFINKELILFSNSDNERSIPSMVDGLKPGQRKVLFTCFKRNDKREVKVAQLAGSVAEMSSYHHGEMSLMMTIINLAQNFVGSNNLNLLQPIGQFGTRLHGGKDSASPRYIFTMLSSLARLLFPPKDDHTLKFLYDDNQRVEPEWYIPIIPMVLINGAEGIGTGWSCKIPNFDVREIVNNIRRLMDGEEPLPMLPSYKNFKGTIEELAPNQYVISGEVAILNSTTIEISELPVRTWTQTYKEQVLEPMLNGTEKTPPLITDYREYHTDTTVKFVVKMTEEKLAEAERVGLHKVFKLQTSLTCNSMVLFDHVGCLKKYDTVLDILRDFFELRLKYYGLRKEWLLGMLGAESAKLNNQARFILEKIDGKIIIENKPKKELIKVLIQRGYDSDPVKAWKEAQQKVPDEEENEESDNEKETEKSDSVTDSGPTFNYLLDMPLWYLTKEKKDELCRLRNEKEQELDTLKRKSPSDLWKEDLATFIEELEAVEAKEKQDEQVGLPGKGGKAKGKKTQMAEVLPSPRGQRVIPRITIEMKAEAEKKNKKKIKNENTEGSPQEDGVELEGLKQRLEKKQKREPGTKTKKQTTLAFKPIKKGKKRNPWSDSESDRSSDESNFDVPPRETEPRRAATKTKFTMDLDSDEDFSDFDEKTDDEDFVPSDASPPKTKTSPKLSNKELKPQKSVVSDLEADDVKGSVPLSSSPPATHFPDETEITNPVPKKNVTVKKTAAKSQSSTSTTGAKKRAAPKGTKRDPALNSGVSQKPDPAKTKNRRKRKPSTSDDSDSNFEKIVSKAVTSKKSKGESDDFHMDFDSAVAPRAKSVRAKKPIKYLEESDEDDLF
Excerpt: Mammalian Topoisomerase II Inhibition Assay Procedure
The inhibition of human topoisomerase II (hereafter topo II) was quantitated by a procedure adapted from that described by Trask et al., EMBO J., 3, 671-676 (1984). The assay quantitates the amount of topo II covalently complexed by DNA at equilibrium during a topo II reaction. This assay determines the potential of a compound to stabilize this complex, which potential is closely related to the cytotoxicity of the compound.
Topo II was purified from late log phase suspension cultures of HeLa WIS by an adaption of the method described by Per et al., Mol. Pharmacol., 32, 17-25 (1987).
Assays (in duplicate) were assembled at 4° C. Assay mix (25 μl) was distributed in Beckman (No. 265270) 1.5 ml microtitre tubes followed by the addition of 5 μl test compound to yield the final concentrations of assay components:
4 ng 3' end labeled (32p) pBR322 DNA (10^7 DPM/μg)
The assay mix including the test compound was incubated for 20 minutes at 37° C. The reaction was terminated at 37° C. by the addition of 3 μl 10% SDS followed by the addition of 266 μl 10 mM Tris-Cl pH 7.5, 20 μg/ml BSA, 20 μg/ml calf thymus DNA, 1% SDS.
A SDS/protein precipitate was formed by the addition of 28 μl 2.5M KCl followed by chilling on ice for a minimum of 10 minutes. The precipitate was collected and washed with a Brandell cell harvester on a GFB glass fiber filter membrane as follows. The contents of the assay tube were drawn up into the harvester. The tube was then rinsed 7× with 10 mM Tris-Cl pH 7.5, 1 mM EDTA and 100 mM KCl. The precipitate was washed with 1 L of a solution of 10 mM Tris-Cl pH 7.5, 1 mM EDTA, 100 mM KCl followed by 1 L of 95% ethyl alcohol and finally 0.5 L 70% of ethyl alcohol (per 48 samples in each case). After drying, CPM was determined by liquid scintillation counting with 5 ml Biofluor (NEN Research Products) or Readisafe (Beckman Instruments Inc.) cocktail.
Preparation of test compound--A stock solution (6 mg/ml) of test compound was prepared either in 0.1N sodium hydroxide or 0.2N hydrogen chloride. This solution then was diluted 1/5 into water and serially thereafter in either 0.02N sodium hydroxide or 0.04N hydrogen chloride, respectively. The stock solution and serial dilution of the test compound was stored at -20° C. prior to testing.
Screening of test compound--As an initial screen, the test compound was tested at a final concentration of 2, 20 and 200 μg/ml.
Controls--A solvent control which indicates the base level of topo II-DNA complex formed in the absence of the test compound was included in each test. A control, in which topo II was omitted, was included for each test compound at the highest drug concentration tested.
Reference agent--A dose response curve with mAMSA at 0.01, 0.08, 0.16, 0.32, 1.0 and 10 μg/ml was included in each test.
Data reduction--The EC50 (effective concentration at which 50% of the maximal DNA-topo II complex is formed) of a test compound is defined to be the concentration with activity equal to the EC50 of the reference agent, mAMSA. The maximal DNA-topo II complex formed is taken as that equal to that formed at the nearly saturating dose of mAMSA (10 μg/ml).

[3] = test system: colon adenocarcinoma No. 38; experiment: In vivo antitumor assay, colon adenocarcinoma No. 38 (SC); design: species or system mice
Excerpt: as §1, §2, §3, §4, §5, §6, §7

[4] = as above; design: species or system mice; details: mouse, in vivo; Colon 38 (SC); drug SC; QD3-9; read-out: Maximum Tolerated Total Dose
Excerpt: as §1, §2, §3, §4, §5, §6, §7

Cc1cc(-c2c(F)cc3c(=O)c(C(=O)O)cn4c3c2SC[C@@H]4C)cc(C)n1 [Example 5, (S)-10-(2,6-Dimethyl-4-pyridinyl)-9-fluoro-3-methyl-7-oxo-2,3-dihydro-7H-pyrido[1,2,3-de][1,4]benzothiazine-6-carboxylic acid]
MTD [1]: 781 mg/kg | EC50 [2]: 9.4 µM | Long Term Survivors ([3]; Colon 38 (SC), drug SC, QD3-9, 504 mg/kg total, footnote 4: Cure, no tumor evident, day 119): 1/5 | % T/C ([3]; Colon 38 (SC), drug SC, QD3-9, at maximum tolerated total dose 504 mg/kg): 0% | antitumor activity (in words) ([3]; Colon Adenocarcinoma 38): Cure; no tumor evident; day 119; also recorded: clearly active; also recorded: highly active | MTD [4]: 504 mg/kg
